Reference: paper PMC12372887, “Mechanism and cellular actions of the potent AMPK inhibitor BAY-3827” (Science Advances, 2025)

Experiments:
Experiment in all cases: Kinase panel (140 human kinases)
Assay type in all cases: biochemical
[1] = target: Aurora B (Homo sapiens, UniProt Q96GD4)
Procedure: (§1) BAY-3827 and BAY-974 were assayed against a 140-human kinase panel at 0.1 μM and at 1 μM (BAY-3827) concentration in a [γ-^33P] ATP–based radioactive filter binding assay ([31], [65]) setup in duplicates with reported mean remaining kinase percentage activity alongside SD (table S1). Assays were performed at either 5, 20, or 50 μM ATP to be at or below the Michaelis constant for ATP for each enzyme and conducted by the services offered by the International Centre for Kinase Profiling at MRC Protein Phosphorylation and Ubiquitylation Unit, University of Dundee (https://www.kinase-screen.mrc.ac.uk/services/premier-screen).

[2] = target: BRK (Homo sapiens, UniProt Q13882)
Procedure: as §1

[3] = target: CAMK1 (Homo sapiens, UniProt Q14012)
Procedure: as §1

[4] = target: CAMKKb (Homo sapiens, UniProt Q96RR4)
Procedure: as §1

[5] = target: CDK2-Cyclin A (Homo sapiens, UniProt P24941)
Procedure: as §1

[6] = target: CHK1 (Homo sapiens, UniProt O14757)
Procedure: as §1

[7] = target: CHK2 (Homo sapiens, UniProt O96017)
Procedure: as §1

[8] = target: CK1δ (Homo sapiens, UniProt P48730)
Procedure: as §1

[9] = target: DYRK2 (Homo sapiens, UniProt Q92630)
Procedure: as §1

[10] = target: DYRK3 (Homo sapiens, UniProt O43781)
Procedure: as §1

[11] = target: ERK5 (Homo sapiens, UniProt Q13164)
Procedure: as §1

[12] = target: IKKe (Homo sapiens, UniProt Q14164)
Procedure: as §1

[13] = target: IR (Homo sapiens, UniProt P06213)
Procedure: as §1

[14] = target: IRAK1 (Homo sapiens, UniProt P51617)
Procedure: as §1

[15] = target: IRR (Homo sapiens, UniProt P14616)
Procedure: as §1

[16] = target: JNK2 (Homo sapiens, UniProt P45984)
Procedure: as §1

[17] = target: MARK2 (Homo sapiens, UniProt Q7KZI7)
Procedure: as §1

[18] = target: MEKK1 (Homo sapiens, UniProt Q13233)
Procedure: as §1

[19] = target: MKK6 (Homo sapiens, UniProt P52564)
Procedure: as §1

[20] = target: MSK1 (Homo sapiens, UniProt O75582)
Procedure: as §1

[21] = target: PIM3 (Homo sapiens, UniProt Q86V86)
Procedure: as §1

[22] = target: PRK2 (Homo sapiens, UniProt Q16513)
Procedure: as §1

[23] = target: RIPK2 (Homo sapiens, UniProt O43353)
Procedure: as §1

[24] = target: S6K1 (Homo sapiens, UniProt P23443)
Procedure: as §1

[25] = target: SGK1 (Homo sapiens, UniProt O00141)
Procedure: as §1

[26] = target: SIK2 (Homo sapiens, UniProt Q9H0K1)
Procedure: as §1

[27] = target: SIK3 (Homo sapiens, UniProt Q9Y2K2)
Procedure: as §1

[28] = target: SmMLCK (Homo sapiens, UniProt Q15746)
Procedure: as §1

[29] = target: T1, TBK1 (Homo sapiens, UniProt Q9UHD2)
T1 sequence (Q9UHD2 1-729): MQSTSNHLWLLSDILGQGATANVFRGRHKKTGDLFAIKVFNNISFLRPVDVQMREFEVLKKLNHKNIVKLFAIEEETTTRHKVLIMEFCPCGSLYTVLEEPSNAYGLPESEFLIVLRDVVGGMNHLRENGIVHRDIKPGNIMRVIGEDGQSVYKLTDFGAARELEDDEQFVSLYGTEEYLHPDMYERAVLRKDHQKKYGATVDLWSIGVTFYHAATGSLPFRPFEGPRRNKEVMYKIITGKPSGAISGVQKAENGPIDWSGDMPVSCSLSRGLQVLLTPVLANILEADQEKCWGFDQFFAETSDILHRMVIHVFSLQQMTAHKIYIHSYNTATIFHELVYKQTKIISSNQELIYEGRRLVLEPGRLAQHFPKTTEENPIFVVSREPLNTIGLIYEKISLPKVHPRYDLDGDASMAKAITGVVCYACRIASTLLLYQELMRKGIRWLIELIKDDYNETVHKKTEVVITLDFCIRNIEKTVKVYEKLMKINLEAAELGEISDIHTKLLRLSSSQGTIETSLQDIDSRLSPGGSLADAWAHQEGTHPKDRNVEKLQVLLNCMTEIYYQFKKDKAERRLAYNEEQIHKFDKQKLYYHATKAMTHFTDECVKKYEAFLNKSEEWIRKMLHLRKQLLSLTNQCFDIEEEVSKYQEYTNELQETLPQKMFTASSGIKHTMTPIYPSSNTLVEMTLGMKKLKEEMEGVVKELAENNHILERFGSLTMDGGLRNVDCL
Procedure: as §1

[30] = target: TTK (Homo sapiens, UniProt P33981)
Procedure: as §1

[31] = target: p38b MAPK (Homo sapiens, UniProt Q15759)
Procedure: as §1

[32] = 1 μM, cross-referenced with screen data of ref 37, read-out: activity remaining after treatment

Chain of MSK1 (O75582 whole entry): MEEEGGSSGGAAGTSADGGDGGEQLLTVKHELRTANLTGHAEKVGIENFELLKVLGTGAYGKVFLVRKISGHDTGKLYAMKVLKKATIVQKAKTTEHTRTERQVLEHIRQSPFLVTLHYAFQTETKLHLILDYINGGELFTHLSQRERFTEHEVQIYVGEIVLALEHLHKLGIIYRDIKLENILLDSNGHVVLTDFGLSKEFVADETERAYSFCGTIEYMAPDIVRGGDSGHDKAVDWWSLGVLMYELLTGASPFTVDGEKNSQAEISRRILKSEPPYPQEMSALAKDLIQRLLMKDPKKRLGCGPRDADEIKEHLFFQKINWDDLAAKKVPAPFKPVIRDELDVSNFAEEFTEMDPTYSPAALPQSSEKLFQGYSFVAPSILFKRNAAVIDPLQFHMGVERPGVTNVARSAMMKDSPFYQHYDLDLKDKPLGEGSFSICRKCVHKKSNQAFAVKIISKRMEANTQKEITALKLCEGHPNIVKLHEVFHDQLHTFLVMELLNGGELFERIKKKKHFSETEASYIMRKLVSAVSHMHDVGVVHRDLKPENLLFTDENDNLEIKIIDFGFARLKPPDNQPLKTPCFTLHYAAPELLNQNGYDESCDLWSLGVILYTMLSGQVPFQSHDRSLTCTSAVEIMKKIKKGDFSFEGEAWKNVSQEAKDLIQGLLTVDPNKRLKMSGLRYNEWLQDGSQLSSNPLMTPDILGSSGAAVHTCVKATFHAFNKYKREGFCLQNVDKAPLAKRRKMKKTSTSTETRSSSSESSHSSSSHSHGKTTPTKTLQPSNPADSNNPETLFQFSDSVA
Chain of Aurora B (Q96GD4 whole entry): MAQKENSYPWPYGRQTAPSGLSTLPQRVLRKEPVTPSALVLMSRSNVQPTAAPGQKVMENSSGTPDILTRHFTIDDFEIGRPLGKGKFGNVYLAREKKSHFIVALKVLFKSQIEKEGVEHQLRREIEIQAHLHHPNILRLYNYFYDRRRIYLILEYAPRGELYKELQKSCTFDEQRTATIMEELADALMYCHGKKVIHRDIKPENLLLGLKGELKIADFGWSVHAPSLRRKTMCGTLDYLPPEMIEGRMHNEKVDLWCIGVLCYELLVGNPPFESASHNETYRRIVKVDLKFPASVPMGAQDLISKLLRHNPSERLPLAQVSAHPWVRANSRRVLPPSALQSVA
Chain of IR (P06213 28-1382): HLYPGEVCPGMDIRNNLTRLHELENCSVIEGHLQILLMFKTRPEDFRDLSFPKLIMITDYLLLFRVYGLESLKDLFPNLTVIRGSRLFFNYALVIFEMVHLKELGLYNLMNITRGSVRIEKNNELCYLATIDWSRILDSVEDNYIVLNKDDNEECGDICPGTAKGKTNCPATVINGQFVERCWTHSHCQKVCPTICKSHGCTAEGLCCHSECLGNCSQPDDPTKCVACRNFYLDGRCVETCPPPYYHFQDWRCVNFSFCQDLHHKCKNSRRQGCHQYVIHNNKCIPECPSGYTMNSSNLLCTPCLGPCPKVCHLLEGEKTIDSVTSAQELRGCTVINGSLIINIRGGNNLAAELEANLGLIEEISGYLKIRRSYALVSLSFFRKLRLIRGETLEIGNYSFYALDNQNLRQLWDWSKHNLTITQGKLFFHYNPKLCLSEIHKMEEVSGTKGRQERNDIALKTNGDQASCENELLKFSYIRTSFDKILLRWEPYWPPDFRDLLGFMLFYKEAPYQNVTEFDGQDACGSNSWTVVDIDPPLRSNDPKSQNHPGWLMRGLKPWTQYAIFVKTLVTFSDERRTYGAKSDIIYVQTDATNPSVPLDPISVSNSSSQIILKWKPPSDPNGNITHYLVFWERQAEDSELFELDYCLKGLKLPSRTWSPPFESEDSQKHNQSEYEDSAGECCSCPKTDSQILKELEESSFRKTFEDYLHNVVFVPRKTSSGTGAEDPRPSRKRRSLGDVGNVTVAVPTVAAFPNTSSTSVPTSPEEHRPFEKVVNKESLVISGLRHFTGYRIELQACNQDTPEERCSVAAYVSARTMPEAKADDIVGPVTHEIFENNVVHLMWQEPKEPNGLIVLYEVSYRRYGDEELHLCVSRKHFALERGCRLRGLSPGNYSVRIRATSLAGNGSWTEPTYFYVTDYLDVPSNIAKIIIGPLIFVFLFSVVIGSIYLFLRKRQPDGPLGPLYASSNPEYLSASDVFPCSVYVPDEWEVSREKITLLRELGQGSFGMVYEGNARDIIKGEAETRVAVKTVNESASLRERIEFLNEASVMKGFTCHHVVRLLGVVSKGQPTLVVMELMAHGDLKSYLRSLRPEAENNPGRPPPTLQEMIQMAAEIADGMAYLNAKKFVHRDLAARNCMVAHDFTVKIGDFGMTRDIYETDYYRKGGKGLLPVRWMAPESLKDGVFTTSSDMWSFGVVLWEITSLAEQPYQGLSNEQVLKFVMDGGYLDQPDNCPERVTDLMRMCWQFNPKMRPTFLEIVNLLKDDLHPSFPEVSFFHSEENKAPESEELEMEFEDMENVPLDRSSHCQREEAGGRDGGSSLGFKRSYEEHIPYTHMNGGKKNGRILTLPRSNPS
Chain of IRAK1 (P51617 whole entry): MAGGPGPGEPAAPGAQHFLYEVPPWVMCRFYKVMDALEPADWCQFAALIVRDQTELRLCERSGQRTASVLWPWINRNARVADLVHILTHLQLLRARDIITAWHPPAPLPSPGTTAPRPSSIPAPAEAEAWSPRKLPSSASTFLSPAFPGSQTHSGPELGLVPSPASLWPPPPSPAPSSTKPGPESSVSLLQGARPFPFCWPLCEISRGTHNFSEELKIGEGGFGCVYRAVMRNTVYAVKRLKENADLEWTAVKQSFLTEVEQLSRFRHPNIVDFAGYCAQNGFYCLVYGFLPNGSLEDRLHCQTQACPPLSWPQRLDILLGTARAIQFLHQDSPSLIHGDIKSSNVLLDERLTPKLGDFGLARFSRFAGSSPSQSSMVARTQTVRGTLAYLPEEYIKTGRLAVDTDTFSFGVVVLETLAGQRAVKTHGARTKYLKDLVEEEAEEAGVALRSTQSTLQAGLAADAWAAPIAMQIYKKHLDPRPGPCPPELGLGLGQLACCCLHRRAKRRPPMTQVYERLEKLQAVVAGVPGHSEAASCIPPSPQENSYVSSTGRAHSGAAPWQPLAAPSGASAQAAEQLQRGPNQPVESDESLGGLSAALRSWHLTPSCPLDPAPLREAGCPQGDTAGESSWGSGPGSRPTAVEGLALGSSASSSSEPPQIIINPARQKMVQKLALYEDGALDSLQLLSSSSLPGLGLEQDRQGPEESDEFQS
Chain of IKKe (Q14164 whole entry): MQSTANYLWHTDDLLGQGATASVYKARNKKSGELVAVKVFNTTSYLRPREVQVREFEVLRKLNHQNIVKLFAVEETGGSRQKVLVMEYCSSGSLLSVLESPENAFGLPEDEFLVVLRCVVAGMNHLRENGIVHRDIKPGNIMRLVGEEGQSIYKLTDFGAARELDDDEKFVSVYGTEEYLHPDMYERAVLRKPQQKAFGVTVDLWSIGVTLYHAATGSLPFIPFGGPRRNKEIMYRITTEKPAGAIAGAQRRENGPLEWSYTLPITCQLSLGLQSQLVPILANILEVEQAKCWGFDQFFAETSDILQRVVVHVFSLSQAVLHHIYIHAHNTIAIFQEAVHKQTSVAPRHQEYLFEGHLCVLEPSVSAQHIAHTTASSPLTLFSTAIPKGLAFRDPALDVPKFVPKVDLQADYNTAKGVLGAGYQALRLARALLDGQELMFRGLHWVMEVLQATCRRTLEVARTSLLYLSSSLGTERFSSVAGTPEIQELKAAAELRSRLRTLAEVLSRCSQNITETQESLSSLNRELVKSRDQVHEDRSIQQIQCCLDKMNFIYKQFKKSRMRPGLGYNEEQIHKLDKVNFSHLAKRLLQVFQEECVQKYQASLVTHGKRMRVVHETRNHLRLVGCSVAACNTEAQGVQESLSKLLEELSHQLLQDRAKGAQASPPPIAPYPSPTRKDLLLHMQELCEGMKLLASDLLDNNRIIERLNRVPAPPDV
Chain of MARK2 (Q7KZI7 whole entry): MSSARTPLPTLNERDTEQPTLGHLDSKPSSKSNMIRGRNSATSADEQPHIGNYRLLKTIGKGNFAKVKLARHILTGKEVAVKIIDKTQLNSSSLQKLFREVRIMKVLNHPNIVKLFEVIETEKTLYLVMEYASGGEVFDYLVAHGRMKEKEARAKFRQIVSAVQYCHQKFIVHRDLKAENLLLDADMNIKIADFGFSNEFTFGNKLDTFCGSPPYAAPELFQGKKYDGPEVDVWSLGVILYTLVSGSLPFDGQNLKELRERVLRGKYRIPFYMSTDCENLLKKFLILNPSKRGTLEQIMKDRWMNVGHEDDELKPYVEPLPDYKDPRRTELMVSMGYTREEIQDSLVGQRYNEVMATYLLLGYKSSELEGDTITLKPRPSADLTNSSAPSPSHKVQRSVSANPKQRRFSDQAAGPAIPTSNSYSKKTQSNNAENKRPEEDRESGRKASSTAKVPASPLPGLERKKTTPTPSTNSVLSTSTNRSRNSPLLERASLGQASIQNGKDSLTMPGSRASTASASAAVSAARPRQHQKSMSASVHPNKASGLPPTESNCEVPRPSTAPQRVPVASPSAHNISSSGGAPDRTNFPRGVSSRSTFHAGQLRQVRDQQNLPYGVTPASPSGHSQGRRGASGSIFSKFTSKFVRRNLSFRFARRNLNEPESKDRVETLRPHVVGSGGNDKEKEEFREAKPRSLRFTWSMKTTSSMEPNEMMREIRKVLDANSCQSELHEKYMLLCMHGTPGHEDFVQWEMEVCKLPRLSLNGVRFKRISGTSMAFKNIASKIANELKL

SMILES	remaining activity at 0.1 µM [1] [%]	remaining activity at 0.1 µM [2] [%]	remaining activity at 0.1 µM [3] [%]	remaining activity at 0.1 µM [4] [%]	remaining activity at 0.1 µM [5] [%]	remaining activity at 0.1 µM [6] [%]	remaining activity at 0.1 µM [7] [%]	remaining activity at 0.1 µM [8] [%]	remaining activity at 0.1 µM [9] [%]	remaining activity at 0.1 µM [10] [%]	remaining activity at 0.1 µM [11] [%]	remaining activity at 0.1 µM [12] [%]	remaining activity at 0.1 µM [13] [%]	inhibition at 0.1 µM [14] [%]	remaining activity at 0.1 µM [15] [%]	remaining activity at 0.1 µM [16] [%]	remaining activity at 0.1 µM [17] [%]	remaining activity at 0.1 µM [18] [%]	remaining activity at 0.1 µM [19] [%]	remaining activity at 0.1 µM [20] [%]	further results
CC1=C(C#N)C(c2ccc3c(c2)c(NC(=O)c2ccccc2C)nn3C)C(C#N)=C(C)N1 [BAY-974, N-[5-(3,5-dicyano-2,6-dimethyl-1,4-dihydropyridin-4-yl)-1-methylindazol-3-yl]-2-methylbenzamide]	62	70	78	107	96	78	87	116	79	83	70	101	81	55 to 90	88	104	87	99	94	100	remaining activity at 0.1 µM [21]: 125%; remaining activity at 0.1 µM [22]: 83%; remaining activity at 0.1 µM [23]: 108%; remaining activity at 0.1 µM [24]: 97%; remaining activity at 0.1 µM [25]: 127%; remaining activity at 0.1 µM [26]: 88%; remaining activity at 0.1 µM [27]: 81%; remaining activity at 0.1 µM [28]: 80%; remaining activity at 0.1 µM [29]: 91%; remaining activity at 0.1 µM [30]: 79%; remaining activity at 0.1 µM [31]: 81%
CCc1ccccc1C(=O)Nc1n[nH]c2c(C)c(F)c(C3C(C#N)=C(C)N(C)C(C)=C3C#N)cc12 [BAY-3827, N-[5-(3,5-dicyano-1,2,6-trimethyl-4H-pyridin-4-yl)-6-fluoro-7-methyl-1H-indazol-3-yl]-2-ethylbenzamide]	≤ 50	83	80	97	99	66	93	103	89	97	80	85	102	~60	89	105	77	97	101	56	inhibition at 0.1 µM [1]: ~60%; remaining activity at 1 µM ([5]; 1 μM, CDK2, cross-referenced with screen data of ref 37, read-out: activity remaining after treatment): ≥ 99%; remaining activity at 1 µM ([13]; 1 μM, INSR, cross-referenced with screen data of ref 37, read-out: activity remaining after treatment): ≥ 99%; remaining activity at 0.1 µM [14]: ≤ 50%; remaining activity at 1 µM [20, 32]: ≤ 50%; remaining activity at 0.1 µM [21]: 101%; remaining activity at 1 µM [21, 32]: ≥ 99%; remaining activity at 0.1 µM [22]: 88%; remaining activity at 0.1 µM [23]: 102%; remaining activity at 0.1 µM [24]: 87%; remaining activity at 0.1 µM [25]: 97%; remaining activity at 0.1 µM [26]: 107%; remaining activity at 0.1 µM [27]: 99%; remaining activity at 0.1 µM [28]: 76%; inhibition at 0.1 µM [29]: ~60%; remaining activity at 0.1 µM [29]: ≤ 50%; remaining activity at 0.1 µM [30]: 74%; remaining activity at 0.1 µM [31]: 55%
